Converted amounts (≈) assume the structure as drawn.
Test system: Mycobacterium tuberculosis variant bovis
Assay: Antitubercular activity against Mycobacterium bovis
Type: functional

Fc1ccc(-c2cn(Cc3csc(-c4ccccc4)n3)nn2)cc1
MIC: 1.69 µg/mL (≈ 5.02 µM)

— ChEMBL document CHEMBL4406816, “Role of sulphur-heterocycles in medicinal chemistry: An update” (Eur J Med Chem, 2019)
